Laboratory results: publication PMC7587356, “High-Throughput Screening for Inhibitors of the SARS-CoV-2 Protease Using a FRET-Biosensor” (Molecules, 2020)
Where a name gives a salt, the structure may show the parent alone. Read-outs that look alike come from different tables or passages of the source.

Molecular target: SARS-CoV-2 3CLpro (Severe acute respiratory syndrome coronavirus 2, UniProt P0DTD1)
Assay: biochemical
Format: biochemical
Set-up: Replicate_1 / Replicate_2 / mean / mean (LOPAC_screen_w_protease): unit not given here
Conditions: for inhibition at 5 µM: 4 h
[1] = LOPAC1280 primary screen with protease, 5 µM compound, mean of two replicates
[2] = LOPAC1280 primary screen with protease, 5 µM compound, replicate 1
[3] = LOPAC1280 primary screen with protease, 5 µM compound, replicate 2
[4] = sheet LOPAC_screen_w_protease, LOPAC1280 primary screen at 5 µM, with protease, replicate 1
[5] = sheet LOPAC_screen_w_protease, LOPAC1280 primary screen at 5 µM, with protease, replicate 2
[6] = sheet LOPAC_screen_w_protease, LOPAC1280 at 5 µM, mean of two replicates
[7] = sheet LOPAC_screen_w_protease, LOPAC1280 at 5 µM, replicate 1
[8] = sheet LOPAC_screen_w_protease, LOPAC1280 at 5 µM, replicate 2
[9] = sheet LOPAC_screen_w_protease, LOPAC1280 primary screen with protease, 5 µM compound, mean of the two replicates
[10] = sheet LOPAC_screen_w_protease, LOPAC1280 primary screen with protease, 5 µM compound, replicate 1
[11] = sheet LOPAC_screen_w_protease, LOPAC1280 primary screen with protease, 5 µM compound, replicate 2
[12] = sheet LOPAC_screen_w_protease, primary screen with protease, compound at 5 µM, mean of two replicates
[13] = sheet LOPAC_screen_w_protease, primary screen with protease, compound at 5 µM, replicate 1
[14] = sheet LOPAC_screen_w_protease, primary screen with protease, compound at 5 µM, replicate 2
[15] = sheet LOPAC_screen_w_protease, primary screen of LOPAC1280 at 5 µM with protease, mean of the two replicates
[16] = sheet LOPAC_screen_w_protease, primary screen of LOPAC1280 at 5 µM with protease, replicate 1
[17] = sheet LOPAC_screen_w_protease, primary screen of LOPAC1280 at 5 µM with protease, replicate 2
[18] = sheet LOPAC_screen_w_protease, LOPAC1280 at 5 µM, mean of two replicates, read-out: mean
[19] = sheet LOPAC_screen_w_protease, LOPAC1280 at 5 µM, replicate 1, read-out: Replicate_1
[20] = sheet LOPAC_screen_w_protease, LOPAC1280 at 5 µM, replicate 2, read-out: Replicate_2
[21] = sheet LOPAC_screen_w_protease, primary screen with protease, mean of two replicates
[22] = sheet LOPAC_screen_w_protease, primary screen with protease, replicate 1
[23] = sheet LOPAC_screen_w_protease, primary screen with protease, replicate 2
[24] = sheet LOPAC_screen_w_protease, primary screen at 5 µM, mean of two replicates
[25] = sheet LOPAC_screen_w_protease, primary screen at 5 µM, replicate 1
[26] = sheet LOPAC_screen_w_protease, primary screen at 5 µM, replicate 2
[27] = sheet LOPAC_screen_w_protease, primary screen with protease, compound at 5 µM, mean of two replicates, read-out: mean
[28] = sheet LOPAC_screen_w_protease, primary screen with protease, compound at 5 µM, replicate 1, read-out: Replicate_1
[29] = sheet LOPAC_screen_w_protease, primary screen with protease, compound at 5 µM, replicate 2, read-out: Replicate_2

Br.Br.N=C(N)SCCc1cccc(CCSC(=N)N)c1 [1,3-PBIT dihydrobromide]
mean (LOPAC_screen_w_protease) [1]: 1.415 | Replicate_1 (LOPAC_screen_w_protease) [2]: 1.3545 | Replicate_2 (LOPAC_screen_w_protease) [3]: 1.476

CN/C(=N/CCSCc1nc[nH]c1C)NC#N [Cimetidine]
inhibition at 5 µM (read-out: Replicate_1): 1.76% | inhibition at 5 µM (read-out: Replicate_2): 2.91% | inhibition at 5 µM (read-out: mean): 2.34%

CC(C)[C@H]1CN[C@H](C(=O)O)[C@H]1CC(=O)O [Dihydrokainic acid]
mean (sheet LOPAC_screen_w_protease, LOPAC1280 primary screen at 5 µM, with protease, mean of the two replicates): 0.7305 | Replicate_1 [4]: 1.689 | Replicate_2 [5]: -0.2284

N[C@@H](CCCC(=O)O)C(=O)O [L-2-aminoadipic acid]
mean [6]: 0.8841 | Replicate_1 [7]: 1.166 | Replicate_2 [8]: 0.6027

CCn1cc(C(=O)[O-])c(=O)c2ccc(C)nc21.[Na+] [Nalidixic acid sodium]
mean [9]: 4.611 | Replicate_1 [10]: 4.1091 | Replicate_2 [11]: 5.113

Cl.NCC(O)c1cc(O)c(O)cc1F (stereo not drawn) [6-Fluoronorepinephrine hydrochloride]
mean [12]: 2.749 | Replicate_1 [13]: 2.331 | Replicate_2 [14]: 3.1667

NC1(C(=O)O)CCc2cc(C(=O)O)ccc21 (stereo not drawn) [AIDA]
mean [15]: 3.327 | Replicate_1 [16]: 3.929 | Replicate_2 [17]: 2.7246

O=C1NCN(c2ccccc2)C12CCN(CC1COc3ccccc3O1)CC2 (stereo not drawn) [Spiroxatrine]
inhibition at 5 µM (sheet LOPAC_screen_w_protease, LOPAC1280 primary screen at 5 µM, with protease, mean of the two replicates, read-out: mean): 0.522% | inhibition at 5 µM (sheet LOPAC_screen_w_protease, LOPAC1280 primary screen at 5 µM, with protease, replicate 1, read-out: Replicate_1): 1.86% | inhibition at 5 µM (sheet LOPAC_screen_w_protease, LOPAC1280 primary screen at 5 µM, with protease, replicate 2, read-out: Replicate_2): -0.819%

Cl.NC1(C(=O)O)CCCCC1
mean [12]: 2.729 | Replicate_1 [13]: 1.961 | Replicate_2 [14]: 3.496

CCCn1c(=O)c2[nH]c(-c3ccc(OCC(=O)NCCN)cc3)nc2n(CCC)c1=O [Xanthine amine congener]
mean (sheet LOPAC_screen_w_protease, LOPAC1280 primary screen at 5 µM, with protease, mean of two replicates): -1.654 | Replicate_1 [4]: -1.399 | Replicate_2 [5]: -1.91

CN(C)c1cc2c(Nc3ccc4c(cnn4Cc4ccccc4)c3)ncnc2cn1 [GW2974]
mean (LOPAC_screen_w_protease) [1]: 1.489 | Replicate_1 (LOPAC_screen_w_protease) [2]: 2.805 | Replicate_2 (LOPAC_screen_w_protease) [3]: 0.1722

CCOC(=O)C1=C[C@]2(CC)CCCN3CCc4c(n1c1ccccc41)[C@@H]32 [Vinpocetine]
inhibition at 5 µM [18]: 0.949% | inhibition at 5 µM [19]: 0.618% | inhibition at 5 µM [20]: 1.28%

C[C@]12CCC(=O)C=C1CC[C@@H]1[C@@H]2CC[C@]2(C)C(=O)CC[C@@H]12 [4-Androstene-3,17-dione]
inhibition at 5 µM (read-out: Replicate_1): 0.757% | inhibition at 5 µM (read-out: Replicate_2): 1.66% | inhibition at 5 µM (read-out: mean): 1.21%

Cl.Cl.NCCNS(=O)(=O)c1cccc2cnccc12 [H-9 dihydrochloride]
mean (sheet LOPAC_screen_w_protease, primary screen with protease, 5 µM, mean of two replicates): 0.3892 | Replicate_1 (sheet LOPAC_screen_w_protease, primary screen with protease, 5 µM, replicate 1): 0.9278 | Replicate_2 (sheet LOPAC_screen_w_protease, primary screen with protease, 5 µM, replicate 2): -0.1494

CC(N)c1cccc(Cl)c1Cl.Cl (racemic)
mean [21]: 2.411 | Replicate_1 [22]: 4.03 | Replicate_2 [23]: 0.7923

NC(=O)C1=CN([C@@H]2O[C@H](COP(=O)([O-])OP(=O)([O-])OC[C@H]3O[C@@H](n4cnc5c(N)ncnc54)[C@H](OP(=O)([O-])[O-])[C@@H]3O)[C@@H](O)[C@H]2O)C=CC1.[Na+].[Na+].[Na+].[Na+] [NADPH tetrasodium]
mean [6]: 1.2074 | Replicate_1 [7]: 1.812 | Replicate_2 [8]: 0.6031

Cl.O=C(OC1CCN(CCCl)CC1)C(c1ccccc1)c1ccccc1
mean [21]: 2.3143 | Replicate_1 [22]: 3.423 | Replicate_2 [23]: 1.205

NC(CCP(=O)(O)O)C(=O)O (racemic) [(±)-2-Amino-4-phosphonobutyric acid]
mean [6]: 1.206 | Replicate_1 [7]: 2.762 | Replicate_2 [8]: -0.351

CC(C)NCC(O)COc1cccc2ccccc12.Cl (racemic) [(±)-Propranolol hydrochloride]
Replicate_1: 2.83 | Replicate_2: 6.763 | mean: 4.797

CCCOC(=O)c1c(-c2ccccc2)nc(CC)c(C(=O)SCC)c1CCC [MRS 1523]
mean [12]: 2.972 | Replicate_1 [13]: 3.943 | Replicate_2 [14]: 2.002

CCn1c(=O)c2nc(-c3ccccc3)[nH]c2n(CC)c1=O [1,3-Diethyl-8-phenylxanthine]
inhibition at 5 µM (sheet LOPAC_screen_w_protease, primary screen of LOPAC1280 at 5 µM with protease, mean of the two replicates, read-out: mean): 3.47% | inhibition at 5 µM (sheet LOPAC_screen_w_protease, primary screen of LOPAC1280 at 5 µM with protease, replicate 1, read-out: Replicate_1): 3.04% | inhibition at 5 µM (sheet LOPAC_screen_w_protease, primary screen of LOPAC1280 at 5 µM with protease, replicate 2, read-out: Replicate_2): 3.9%

CC(=O)NCCc1ccc(O)c(O)c1.O [N-Acetyldopamine monohydrate]
mean (LOPAC screen with protease) [24]: 81.0563 | Replicate_1 (LOPAC screen with protease) [25]: 83.9163 | Replicate_2 (LOPAC screen with protease) [26]: 78.1962

OC[C@H]1O[C@@H](n2cnc3c(NC4CCCCC4)ncnc32)[C@H](O)[C@@H]1O [N6-Cyclohexyladenosine]
mean (LOPAC_screen_w_protease) [1]: 1.471 | Replicate_1 (LOPAC_screen_w_protease) [2]: 2.337 | Replicate_2 (LOPAC_screen_w_protease) [3]: 0.606

OC[C@H]1NC[C@H](O)[C@@H](O)[C@@H]1O [1-Deoxynojirimycin hydrochloride]
inhibition at 5 µM [27]: 2.78% | inhibition at 5 µM [28]: 4.02% | inhibition at 5 µM [29]: 1.54%

CC12NC(Cc3ccccc31)c1ccccc12.O=C(O)/C=C\C(=O)O (single isomer, unassigned; (+)) [(+)-MK-801 hydrogen maleate]
mean [12]: 2.6873 | Replicate_1 [13]: 4.9061 | Replicate_2 [14]: 0.4685

Cl.NCC(O)c1ccc(O)cc1 (racemic) [(±)-Octopamine hydrochloride]
mean [15]: 4.023 | Replicate_1 [16]: 4.835 | Replicate_2 [17]: 3.21

NCCc1c[nH]c2ccc(C(N)=O)cc12.O=C(O)/C=C\C(=O)O [5-Carboxamidotryptamine maleate]
mean (LOPAC_screen_w_protease) (LOPAC1280 primary screen with protease, 5 µM compound, mean of the two replicates): 1.776 | Replicate_1 (LOPAC_screen_w_protease) [2]: 2.928 | Replicate_2 (LOPAC_screen_w_protease) [3]: 0.6229

CN(C)CCOC(=O)COc1ccc(Cl)cc1 [Centrophenoxine hydrochloride]
inhibition at 5 µM [18]: 1.27% | inhibition at 5 µM [19]: 1.82% | inhibition at 5 µM [20]: 0.724%

CC[N+](CC)(CC)CCOc1cccc(OCC[N+](CC)(CC)CC)c1OCC[N+](CC)(CC)CC [Gallamine triethiodide]
inhibition at 5 µM (sheet LOPAC_screen_w_protease, primary screen at 5 µM, mean of two replicates, read-out: mean (LOPAC screen with protease)): 11.3% | inhibition at 5 µM (sheet LOPAC_screen_w_protease, primary screen at 5 µM, replicate 1, read-out: Replicate_1 (LOPAC screen with protease)): 12.1% | inhibition at 5 µM (sheet LOPAC_screen_w_protease, primary screen at 5 µM, replicate 2, read-out: Replicate_2 (LOPAC screen with protease)): 10.6%

N=C(N)SCCc1cnc[nH]1 [Imetit dihydrobromide]
inhibition at 5 µM (sheet LOPAC_screen_w_protease, primary screen with protease, mean of two replicates, read-out: mean): 2.25% | inhibition at 5 µM (sheet LOPAC_screen_w_protease, primary screen with protease, replicate 1, read-out: Replicate_1): 1.12% | inhibition at 5 µM (sheet LOPAC_screen_w_protease, primary screen with protease, replicate 2, read-out: Replicate_2): 3.38%

Cl.NC[C@@H]1O[C@H](C23CC4CC(CC(C4)C2)C3)Cc2c1ccc(O)c2O [A-77636 hydrochloride]
mean (LOPAC screen with protease) [24]: 61.6634 | Replicate_1 (LOPAC screen with protease) [25]: 62.3885 | Replicate_2 (LOPAC screen with protease) [26]: 60.9383

CC1OC(C[N+](C)(C)C)CS1.[I-] (stereo not drawn) [OXA-22 iodide]
mean [9]: 6.327 | Replicate_1 [10]: 7.065 | Replicate_2 [11]: 5.588

COc1ccccc1N1CCN(CCCCNC(=O)c2ccc3ccccc3c2)CC1 [BP 897]
inhibition at 5 µM (LOPAC1280 primary screen with protease, 5 µM compound, replicate 1, read-out: Replicate_1 (LOPAC_screen_w_protease)): 0.668% | inhibition at 5 µM (LOPAC1280 primary screen with protease, 5 µM compound, replicate 2, read-out: Replicate_2 (LOPAC_screen_w_protease)): 1.98% | mean (LOPAC_screen_w_protease) [1]: 1.323

CCOC(=O)c1ncn2c1CN(C)C(=O)c1cc(F)ccc1-2 [Flumazenil]
inhibition at 5 µM [27]: 3.1% | inhibition at 5 µM [28]: 5.09% | inhibition at 5 µM [29]: 1.11%
